Experimental data taken from patent US12180187B2, “1-phenyl-5-azinylpyrazolyl-3-oxyalkyl acids and their use for controlling unwanted plant growth” (BAYER AKTIENGESELLSCHAFT, priority 2019, dated 2024).

Experiments:
ALOMY [1] = assay: Pre-emergence action against ALOMY, 1280 g/ha; format: in vivo, Alopecurus myosuroides; conditions: visual scoring after about 3 weeks vs untreated controls, 100% = plants have died, 0% = like control plants
How it was run: (§1)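 Compound applied as WP or EC in aqueous spray (0.5% additive, 600 L/ha) to the surface of sandy loam covering freshly sown seeds. After about 3 weeks under good greenhouse conditions, damage is given as visual percentage, 100% meaning plant death.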

DIGSA [2] = assay: Pre-emergence action against DIGSA, 1280 g/ha; format: in vivo, Digitaria sanguinalis; conditions: visual scoring after about 3 weeks vs untreated controls, 100% = plants have died, 0% = like control plants
How it was run: as §1

ECHCG [3] = assay: Pre-emergence action against ECHCG, 1280 g/ha; format: in vivo, Echinochloa crus-galli; conditions: visual scoring after about 3 weeks vs untreated controls, 100% = plants have died, 0% = like control plants
How it was run: as §1

LOLRI [4] = assay: Pre-emergence action against LOLRI, 1280 g/ha; format: in vivo, Lolium rigidum; conditions: visual scoring after about 3 weeks vs untreated controls, 100% = plants have died, 0% = like control plants
How it was run: as §1

POAAN [5] = assay: Pre-emergence action against POAAN, 1280 g/ha; format: in vivo, Poa annua; conditions: visual scoring after about 3 weeks vs untreated controls, 100% = plants have died, 0% = like control plants
How it was run: as §1

SETVI [6] = assay: Pre-emergence action against SETVI, 1280 g/ha; format: in vivo, Setaria viridis; conditions: visual scoring after about 3 weeks vs untreated controls, 100% = plants have died, 0% = like control plants
How it was run: as §1

ABUTH [7] = assay: Pre-emergence action against ABUTH, 1280 g/ha; format: in vivo, Abutilon theophrasti; conditions: scored visually after about 3 weeks vs untreated controls (100% = plants have died)
Text: 1. Pre-Emergence Herbicidal Effect and Crop Plant Compatibility a) Seeds of mono- and dicotyledonous weed plants are placed in plastic pots in sandy loam soil (doubly sown with one species each of mono- or dicotyledonous weed plants per pot) and covered with soil. The compounds of the invention, formulated in the form of wettable powders (WP) or as emulsion concentrates (EC), are then applied onto the surface of the covering soil as aqueous suspension or emulsion with addition of 0.5% additive at a water application rate equivalent to 600 litres per hectare. After the treatment, the pots are placed in a greenhouse and kept under good growth conditions for the trial plants. After about 3 weeks, the effect of the preparations is scored visually in comparison with untreated controls as percentages. For example, 100% activity=the plants have died, 0% activity=like control plants. 1. Pre-Emergence Effectiveness Tables 1 to 12 below show the effects of selected compounds of the general formula (I) according to Tables 1 and 2 on various harmful plants and at an application rate corresponding to 1280 g/ha, which were obtained by the experimental procedure mentioned above.

AMARE [8] = assay: Pre-emergence action against AMARE, 1280 g/ha; format: in vivo, Amaranthus retroflexus; conditions: scored visually after about 3 weeks vs untreated controls (100% = plants have died)
How it was run: as §1

MATIN [9] = assay: Pre-emergence action against MATIN, 1280 g/ha; format: in vivo, Tripleurospermum inodorum (Matricaria inodora); conditions: scored visually after about 3 weeks vs untreated controls (100% = plants have died)
How it was run: as §1

STEME [10] = assay: Pre-emergence action against STEME, 1280 g/ha; format: in vivo, Stellaria media; conditions: scored visually after about 3 weeks vs untreated controls (100% = plants have died)
How it was run: as §1

VERPE [11] = assay: Pre-emergence action against VERPE, 1280 g/ha; format: in vivo, Veronica persica; conditions: scored visually after about 3 weeks vs untreated controls (100% = plants have died)
How it was run: as §1

ALOMY [12] = assay: Post-emergence action against ALOMY, 1.28 kg/ha; format: in vivo, Alopecurus myosuroides; conditions: dosage 1280 g/ha, visual rating about 3 weeks after treatment vs untreated controls
How it was run: (§2)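 Visual rating against untreated plants about 3 weeks after spraying gives % activity, where 0% means like controls and 100% means plants died. Plants were treated post-emergence at the one-leaf stage with compound formulated as wettable powder or emulsion concentrate, applied at 600 L water/ha plus 0.5% additive.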

DIGSA [13] = assay: Post-emergence action against DIGSA, 1.28 kg/ha; format: in vivo, Digitaria sanguinalis; conditions: dosage 1280 g/ha, visual rating about 3 weeks after treatment vs untreated controls
How it was run: as §2

ECHCG [14] = assay: Post-emergence action against ECHCG, 1.28 kg/ha; format: in vivo, Echinochloa crus-galli; conditions: dosage 1280 g/ha, visual rating about 3 weeks after treatment vs untreated controls
How it was run: as §2

LOLRI [15] = assay: Post-emergence action against LOLRI, 1.28 kg/ha; format: in vivo, Lolium rigidum; conditions: dosage 1280 g/ha, visual rating about 3 weeks after treatment vs untreated controls
How it was run: as §2

POAAN [16] = assay: Post-emergence action against POAAN, 1.28 kg/ha; format: in vivo, Poa annua; conditions: dosage 1280 g/ha, visual rating about 3 weeks after treatment vs untreated controls
How it was run: as §2

SETVI [17] = assay: Post-emergence action against SETVI, 1.28 kg/ha; format: in vivo, Setaria viridis; conditions: dosage 1280 g/ha, visual rating about 3 weeks after treatment vs untreated controls
How it was run: as §2

ABUTH [18] = assay: Post-emergence action against ABUTH, 1.28 kg/ha; format: in vivo, Abutilon theophrasti; conditions: dosage 1280 g/ha, visual rating about 3 weeks after treatment vs untreated controls (100% = plants died)
How it was run: as §2

AMARE [19] = assay: Post-emergence action against AMARE, 1.28 kg/ha; format: in vivo, Amaranthus retroflexus; conditions: dosage 1280 g/ha, visual rating about 3 weeks after treatment vs untreated controls (100% = plants died)
How it was run: as §2

KCHSC = assay: Post-emergence action against KCHSC, 1.28 kg/ha; format: in vivo, Bassia scoparia; conditions: dosage 1280 g/ha, visual rating about 3 weeks after treatment vs untreated controls (100% = plants died)
How it was run: as §2

MATIN [20] = assay: Post-emergence action against MATIN, 1.28 kg/ha; format: in vivo, Tripleurospermum inodorum (Matricaria inodora); conditions: dosage 1280 g/ha, visual rating about 3 weeks after treatment vs untreated controls (100% = plants died)
How it was run: as §2

STEME [21] = assay: Post-emergence action against STEME, 1.28 kg/ha; format: in vivo, Stellaria media; conditions: dosage 1280 g/ha, visual rating about 3 weeks after treatment vs untreated controls (100% = plants died)
How it was run: as §2

VERPE [22] = assay: Post-emergence action against VERPE, 1.28 kg/ha; format: in vivo, Veronica persica; conditions: dosage 1280 g/ha, visual rating about 3 weeks after treatment vs untreated controls (100% = plants died)
How it was run: as §2

SMILES	Pre-emergence action against ALOMY (ALOMY [1]) [%]	Pre-emergence action against DIGSA (DIGSA [2]) [%]	Pre-emergence action against ECHCG (ECHCG [3]) [%]	Pre-emergence action against LOLRI (LOLRI [4]) [%]	Pre-emergence action against POAAN (POAAN [5]) [%]	Pre-emergence action against SETVI (SETVI [6]) [%]	Pre-emergence action against ABUTH (ABUTH [7]) [%]	Pre-emergence action against AMARE (AMARE [8]) [%]	Pre-emergence action against MATIN (MATIN [9]) [%]	Pre-emergence action against STEME (STEME [10]) [%]	Pre-emergence action against VERPE (VERPE [11]) [%]	Post-emergence action against ALOMY (ALOMY [12]) [%]	Post-emergence action against DIGSA (DIGSA [13]) [%]	Post-emergence action against ECHCG (ECHCG [14]) [%]	Post-emergence action against LOLRI (LOLRI [15]) [%]	Post-emergence action against POAAN (POAAN [16]) [%]	Post-emergence action against SETVI (SETVI [17]) [%]	Post-emergence action against AMARE (AMARE [19]) [%]	Post-emergence action against MATIN (MATIN [20]) [%]	Post-emergence action against VERPE (VERPE [22]) [%]	also measured
COC(=O)COc1nn(-c2c(F)cccc2F)c(-c2ccc(F)nc2)c1C#N [VII-061]	100	100	100	100	100	100	90	100	100	100	100	100	100	100	100	100	90	90	100	100	Post-emergence action against ABUTH (ABUTH [18]): 90%; Post-emergence action against KCHSC (KCHSC): 90%; Post-emergence action against STEME (STEME [21]): 100%
CC(Oc1nn(-c2ccccc2F)c(-c2ccc(F)nc2)c1C(F)(F)F)C(=O)O (centres unmarked) [VII-106]	100	100	100	100	100	100	90	100	90	100	100	100	100	90		100	90		90	100	Post-emergence action against KCHSC (KCHSC): 100%; Post-emergence action against STEME (STEME [21]): 100%
COC(=O)COc1nn(-c2c(F)cccc2F)c(-c2ccc(F)nc2)c1Br [VII-109]	100	100	100	100	100	100	90	100	100	100	100	100	100	100	100	100	100	100	100	100	Post-emergence action against ABUTH (ABUTH [18]): 100%; Post-emergence action against KCHSC (KCHSC): 90%; Post-emergence action against STEME (STEME [21]): 100%
COC(=O)[C@@H](C)Oc1nn(-c2ccccc2F)c(-c2cnc(F)c(F)c2)c1Br [VII-149]	100	100		100	100	90	90	100	90	100	100	100	100		100	100		100	100	90	
